The record followed here is US20250092044A1, “Kinase Inhibitors” (Incyte Corporation, priority 2023, published 2025).

The test system of test [1] is pSTAT5 in SET-2 cells in whole blood. Nature of the test: pSTAT5 SET-2 Whole Blood MSD Assay. The settings on record: Homo sapiens, 2 hour incubation, read-out: SET2 WB IC50. In kind it is cell-based. As to the method: SET-2 cells shipped from ABS, RPMI1640 medium, Fetal Bovine Serum from Gibco, Phospho-STAT5a,b Whole Cell Lysate Kit from Mesoscale, Retronectin (Recombinant Human Fibronectin Fragment) from TaKaRa, 96 well cell culture plate flat bottom from Corning, lysis buffer from Cell Signaling Technology, and sterile PBS from Gibco. Whole Blood from by BioIVT.
SET-2 cells were cultured in RPMI media with 20% FBS at 37° C. humidified incubator supplied with 5% CO2. On the day of the assay, 40 uL per well of diluted retronectin working solution was added to sterile 96-well clear flat bottom tissue culture plates (1:200 dilution of retronectin in sterile PBS) and incubated at 37 C for 1 hour. After 1 hour, the retronectin working solution was aspirated and SET-2 cells were seeded at 100,000/well in RPMI+20% FBS. Cells were incubated overnight at 37° C. and 5% CO2. The next day, the medium was removed and 40 μL of diluted compounds in serum-free RPMI and whole blood was added to the cells for a 2 hour incubation at 37° C. and 5% CO2. The compound starting concentration is 20 μM and 2.5 fold serial diluted down to 0.21 nM. The whole blood and compound mixture was then aspirated off using the BlueCat plate washer and washed 1× with PBS. Cells were lysed by adding 40 μL of 3× complete lysis buffer and shaken at room temperature for 45-60 minutes (complete lysis buffer consists of Cell Signaling Technology lysis buffer diluted to 3× and supplemented with Mesoscale's protease inhibitor, phosphatase I inhibitor, and phosphatase II inhibitor). The pSTAT5 MSD plates were blocked by adding 150 μL of Blocker A solution per well to the MSD plates and incubated at room temperature with shaking at 400 rpm for one hour or longer. After blocking, plates were washed 3× with 300 μL/well of 1× Tris Wash Buffer. After lysis, added 25 μL per well of lysed sample was added to MSD plate and incubated with shaking at 4° C. wrapped in foil overnight. The next day, plates were washed again and 25 μL/well of diluted 1× Detection Antibody Solution, wrapped in foil, and incubated at room temperature with shaking at 400 rpm for 1 hour. Plates were then washed again and lastly, 150 μL/well of 1× Read Buffer T was added to all wells. Plates were analyzed on MSD Discovery within 5 minutes. […] Data analysis was performed in GraphPad Prism using a 4-parameter fit and data was reported as Average±SD.

Test [2] has as its target catalytic domain (JH1) of human JAK2 (Homo sapiens (Human), UniProt O60674). Nature of the test: JAK2 LanthaScreen JH1 Binding Assay. The settings on record: read-out: JH1 Bind IC50. Summed up: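 FLAG-tagged biotinylated JH1 (aa 826-1132, baculovirus-expressed), 1.5 nM, with serially diluted compound, 50 nM fluorescent tracer and 0.5 nM streptavidin-Tb in pH 7.5 Tris buffer, 2 h at 25 °C; nonspecific binding with 2 mM ATP. TR-FRET read, IC50 by four-parameter fit.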
On the technique in general: Time-resolved FRET reads energy transfer from a long-lived donor to a nearby acceptor.

Test [3] deals with FLT3. Nature of the test: FLT3 Enzymatic Assay. In kind it is biochemical. Summed up: (§1)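 Room-temperature HTRF kinase assay (665/620 nm ratio) with 0.011 nM FLT3, 1 mM ATP, 500 nM biotinylated TK substrate in HEPES pH 7.0 buffer with MgCl2 and DTT; 0.5% DMSO final. Read after 60 min incubation; IC50 fitted from percent control activity versus log concentration, no-ATP wells as negative control.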

The target in test [4] is FLT3 (Homo sapiens (Human), UniProt P36888). As to the kind of experiment: FLT3 Enzymatic Assay. In kind it is biochemical. The settings on record: 1 mM ATP. Summed up: as §1
Test [5] deals with pseudo-kinase domain (JH2) of human V617F mutant JAK2 (Homo sapiens (Human), UniProt O60674, F794H/V617F/W659A/W777A). Nature of the test: JAK2 LanthaScreen JH2-V617F Binding Assay. The settings on record: read-out: JH2 V617F Bind IC50. The method, boiled down: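 Biotinylated His-Avi JAK2 JH2 (aa 536-812, V617F plus W659A/W777A/F794H; 0.26 nM) incubated 1 h at 25 °C with compound, 50 nM fluorescent JH2 tracer and 0.25 nM streptavidin-Tb in Tris pH 7.5 buffer. TR-FRET tracer displacement read; nonspecific binding with 2 mM ATP; IC50 from four-parameter fit.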
Sequence of pseudo-kinase domain (JH2) of human V617F mutant JAK2 (O60674 536-812 V617F/W659A/W777A/F794H): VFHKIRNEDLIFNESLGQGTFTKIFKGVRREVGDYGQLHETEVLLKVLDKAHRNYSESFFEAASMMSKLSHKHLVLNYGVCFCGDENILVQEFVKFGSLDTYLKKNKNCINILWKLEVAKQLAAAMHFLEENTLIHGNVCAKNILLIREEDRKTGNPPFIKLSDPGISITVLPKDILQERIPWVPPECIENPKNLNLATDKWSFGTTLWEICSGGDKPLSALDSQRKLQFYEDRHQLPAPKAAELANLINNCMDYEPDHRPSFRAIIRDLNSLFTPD

Sequence of FLT3 (Homo sapiens (Human), UniProt P36888) (P36888 27-993, species assumed): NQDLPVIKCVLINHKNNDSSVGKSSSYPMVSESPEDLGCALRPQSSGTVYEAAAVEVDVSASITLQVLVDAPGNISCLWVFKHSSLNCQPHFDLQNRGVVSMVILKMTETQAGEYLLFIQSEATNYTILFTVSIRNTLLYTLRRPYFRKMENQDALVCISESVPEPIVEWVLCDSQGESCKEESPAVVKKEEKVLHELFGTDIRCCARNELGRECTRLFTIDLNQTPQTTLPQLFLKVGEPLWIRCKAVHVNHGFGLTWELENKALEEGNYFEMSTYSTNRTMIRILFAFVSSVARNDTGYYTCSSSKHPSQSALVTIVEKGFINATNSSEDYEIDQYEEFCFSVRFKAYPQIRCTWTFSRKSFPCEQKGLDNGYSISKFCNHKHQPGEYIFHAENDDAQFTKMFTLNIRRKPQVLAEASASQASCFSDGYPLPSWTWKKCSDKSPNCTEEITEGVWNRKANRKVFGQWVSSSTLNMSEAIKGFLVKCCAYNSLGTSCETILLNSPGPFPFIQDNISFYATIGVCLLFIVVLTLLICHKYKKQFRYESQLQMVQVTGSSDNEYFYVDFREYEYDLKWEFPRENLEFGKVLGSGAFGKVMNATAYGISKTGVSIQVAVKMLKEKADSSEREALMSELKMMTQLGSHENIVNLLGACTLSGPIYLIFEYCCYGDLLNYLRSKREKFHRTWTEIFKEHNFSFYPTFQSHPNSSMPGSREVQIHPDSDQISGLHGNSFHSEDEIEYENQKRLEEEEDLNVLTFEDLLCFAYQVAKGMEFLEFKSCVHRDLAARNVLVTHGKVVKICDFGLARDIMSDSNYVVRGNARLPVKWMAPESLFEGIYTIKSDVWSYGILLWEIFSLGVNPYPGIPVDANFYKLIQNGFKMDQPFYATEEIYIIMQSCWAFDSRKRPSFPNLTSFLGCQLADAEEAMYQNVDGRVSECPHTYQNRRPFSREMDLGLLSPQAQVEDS
Sequence of catalytic domain (JH1) of human JAK2 (O60674 826-1132): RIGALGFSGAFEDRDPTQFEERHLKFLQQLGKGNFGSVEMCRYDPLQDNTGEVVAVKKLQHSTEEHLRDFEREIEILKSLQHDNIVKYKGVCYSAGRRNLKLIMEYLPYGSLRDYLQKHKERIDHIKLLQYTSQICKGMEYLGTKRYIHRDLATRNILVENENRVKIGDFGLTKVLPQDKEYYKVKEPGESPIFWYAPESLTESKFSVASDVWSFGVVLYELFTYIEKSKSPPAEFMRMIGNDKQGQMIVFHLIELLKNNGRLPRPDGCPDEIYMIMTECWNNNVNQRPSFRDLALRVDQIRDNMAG

As for `COC(=O)N[C@@H]1CC[C@@H](n2c(=O)n(C)c3cnc4[nH]c(-c5ccc(C(=O)N6CCOCC6)c(F)c5)c(-c5ccc6c(cnn6C(C)C)c5)c4c32)C1` [Example 16, Methyl ((1R,3R)-3-(7-(3-fluoro-4-(morpholine-4-carbonyl)phenyl)-8-(1-isopropyl-1H-indazol-5-yl)-3-methyl-2-oxo-3,6-dihydroimidazo[4,5-d]pyrrolo[2,3-b]pyridin-1(2H)-yl)cyclopentyl)carbamate], the IC50 (as a rule, the midpoint of a concentration-inhibition curve) in test [1] is 2500 to 5000 nM; in test [2] it was above 1000 nM; in test [4], 1250 to 2500 nM; in test [5], at most 10 nM. Further, the “Selectivity FLT3/JH2 V617F” value in test [3] is “****** (selectivity of >12500-fold)”.

`CNC(=O)c1ccc(-c2[nH]c3ncc4c(c3c2-c2ccc3c(cnn3C(C)C)c2)n([C@@H]2CC[C@@H](NC(=O)OC)C2)c(=O)n4C)cc1` [Example 21, Methyl ((1R,3R)-3-(8-(1-isopropyl-1H-indazol-5-yl)-3-methyl-7-(4-(methylcarbamoyl)phenyl)-2-oxo-3,6-dihydroimidazo[4,5-d]pyrrolo[2,3-b]pyridin-1(2H)-yl)cyclopentyl)carbamate]: the IC50 is above 7500 nM in test [1], above 1000 nM in test [2], 250 to 1250 nM in test [4] and at most 10 nM in test [5]. The “Selectivity FLT3/JH2 V617F” value in test [3] is on record as “***** (selectivity of >5000-fold to ≤12500-fold)”.

Regarding `CCNC(=O)c1ccc(-c2[nH]c3ncc4c(c3c2-c2ccc3c(cnn3C(C)C)c2)n([C@@H]2CC[C@@H](NC(=O)OC)C2)c(=O)n4C)cc1` [Example 23, Methyl ((1R,3R)-3-(7-(4-(ethylcarbamoyl)phenyl)-8-(1-isopropyl-1H-indazol-5-yl)-3-methyl-2-oxo-3,6-dihydroimidazo[4,5-d]pyrrolo[2,3-b]pyridin-1(2H)-yl)cyclopentyl)carbamate], the IC50 was 2500 to 5000 nM in test [1], above 1000 nM in test [2], 250 to 1250 nM in test [4] and at most 10 nM in test [5]. In addition, the “Selectivity FLT3/JH2 V617F” value in test [3] was “**** (selectivity of >1750-fold to ≤5000-fold)”.

As to `[2H]C([2H])([2H])N(Cc1ccc(-c2[nH]c3ncc4c(c3c2-c2ccc3c(c2)CC(C)(C)O3)n([C@@H]2CC[C@@H](NC(=O)OC)C2)c(=O)n4C([2H])([2H])[2H])cc1)C([2H])([2H])[2H]` [Example 25, Methyl ((1R,3R)-3-(7-(4-((bis(methyl-d3)amino)methyl)phenyl)-8-(2,2-dimethyl-2,3-dihydrobenzofuran-5-yl)-3-(methyl-d3)-2-oxo-3,6-dihydroimidazo[4,5-d]pyrrolo[2,3-b]pyridin-1(2H)-yl)cyclopentyl)carbamate], the IC50 in test [1] was at most 2500 nM; in test [2], above 1000 nM; in test [4], 250 to 1250 nM; in test [5] it was at most 10 nM. Also, the “Selectivity FLT3/JH2 V617F” value in test [3] was “**** (selectivity of >1750-fold to ≤5000-fold)”.

In the case of `[2H]C([2H])([2H])n1c(=O)n([C@@H]2CC[C@@H](NC(=O)OC)C2)c2c3c(-c4ccc5c(cnn5C(C)C)c4)c(-c4ccc(CN(C)C)cc4)[nH]c3ncc21` [Example 26, Methyl ((1R,3R)-3-(7-(4-((dimethylamino)methyl)phenyl)-8-(1-isopropyl-1H-indazol-5-yl)-3-(methyl-d3)-2-oxo-3,6-dihydroimidazo[4,5-d]pyrrolo[2,3-b]pyridin-1(2H)-yl)cyclopentyl)carbamate], the IC50 in test [1] is at most 2500 nM; in test [2], above 1000 nM; in test [4], 250 to 1250 nM; in test [5] it was at most 10 nM. The “Selectivity FLT3/JH2 V617F” value in test [3] is “**** (selectivity of >1750-fold to ≤5000-fold)”.

Regarding `[2H]C([2H])([2H])N(Cc1ccc(-c2[nH]c3ncc4c(c3c2-c2ccc(OCCOC)cc2)n([C@@H]2CC[C@@H](NC(=O)OC)C2)c(=O)n4C([2H])([2H])[2H])cc1)C([2H])([2H])[2H]` [Example 27, Methyl ((1R,3R)-3-(7-(4-((bis(methyl-d3)amino)methyl)phenyl)-8-(4-(2-methoxyethoxy)phenyl)-3-(methyl-d3)-2-oxo-3,6-dihydroimidazo[4,5-d]pyrrolo[2,3-b]pyridin-1(2H)-yl)cyclopentyl)carbamate], the IC50 in test [1] was at most 2500 nM; in test [2] it was above 1000 nM; in test [4], 250 to 1250 nM; in test [5], at most 10 nM. In addition, the “Selectivity FLT3/JH2 V617F” value in test [3] is “*** (selectivity of >1500-fold to ≤1750-fold)”.

Consider `COC(=O)N[C@@H]1CC[C@@H](n2c(=O)n(C)c3cnc4[nH]c(-c5ccc(CN(C)C)cc5)c(-c5ccc(F)cc5)c4c32)C1` [Example 28, Methyl ((1R,3R)-3-(7-(4-((dimethylamino)methyl)phenyl)-8-(4-fluorophenyl)-3-methyl-2-oxo-3,6-dihydroimidazo[4,5-d]pyrrolo[2,3-b]pyridin-1(2H)-yl)cyclopentyl)carbamate], for which the IC50 in test [1] is at most 2500 nM; in test [2], above 1000 nM; in test [4], 250 to 1250 nM; in test [5] it was at most 10 nM. For the same compound, the “Selectivity FLT3/JH2 V617F” value in test [3] is given as “** (selectivity of >500-fold to ≤1500-fold)”.

As to `[2H]C([2H])([2H])N(Cc1ccc(-c2[nH]c3ncc4c(c3c2-c2ccc3c(c2)COC3(C)C)n([C@@H]2CC[C@@H](NC(=O)OC)C2)c(=O)n4C([2H])([2H])[2H])cc1)C([2H])([2H])[2H]` [Example 29, Methyl ((1R,3R)-3-(7-(4-((bis(methyl-d3)amino)methyl)phenyl)-8-(1,1-dimethyl-1,3-dihydroisobenzofuran-5-yl)-3-(methyl-d3)-2-oxo-3,6-dihydroimidazo[4,5-d]pyrrolo[2,3-b]pyridin-1(2H)-yl)cyclopentyl)carbamate], the IC50 in test [1] was at most 2500 nM; in test [2], above 1000 nM; in test [4] it was 250 to 1250 nM; in test [5], at most 10 nM. Also, the “Selectivity FLT3/JH2 V617F” value in test [3] is recorded as “**** (selectivity of >1750-fold to ≤5000-fold)”.

For `[2H]C([2H])([2H])n1c(=O)n([C@@H]2CC[C@@H](NC(=O)OC)C2)c2c3c(-c4ccc5c(c4)COC5(C)C)c(-c4ccc(C(=O)N(C)C)cc4)[nH]c3ncc21` [Example 30, methyl ((1R,3R)-3-(8-(1,1-dimethyl-1,3-dihydroisobenzofuran-5-yl)-7-(4-(dimethylcarbamoyl)phenyl)-3-(methyl-d3)-2-oxo-3,6-dihydroimidazo[4,5-d]pyrrolo[2,3-b]pyridin-1(2H)-yl)cyclopentyl)carbamate], the IC50 is at most 2500 nM in test [1], above 1000 nM in test [2], 250 to 1250 nM in test [4] and at most 10 nM in test [5]. Further, the “Selectivity FLT3/JH2 V617F” value in test [3] is listed as “***** (selectivity of >5000-fold to ≤12500-fold)”.
